System: MRC 5 fibroblasts
Assay: Cell biological test of active substance: proliferation of MRC 5 fibroblasts by quantification of cellular DNA after DAPI staining
Assay type: cell-based
Conditions: solutions containing only RC (50 μM) or only chlorite (100 μM)
Method: The MRC 5 cells are seeded at 400 cells/cm^2 in a 24 well cell culture plate. The subsequent cultivation is carried out in an incubator 37° C. and 5 vol. % CO2 in a water vapor saturated atmosphere. After 24 hours of precultivation, the culture medium is suctioned off and the cells are washed with PBS.
After 24, 48 and 72 hours, the proliferation of the cells is determined by quantification of the cellular DNA in a fluorometer (Novostar-Company: BMG Labtechnologies) after DAPI staining. Here, the increased fluorescence in the samples is equal to a proliferation of the cells.
The plate to be measured is washed once per well with 500 μl PBS and then 250 μl PBS is placed in each well. 250 μl lysis buffer are added and the cells are lysed in a shaker at the lowest setting for 30 min at RT. Subsequently, 500 μl DAPI solution is added and the plate is left to stand for a further 10 min at RT.
The plate is measured at 355 nm ex. and 460 nm em. in the Novostar. Normally, work is carried out with a gain adjustment of 1400-1600.
The multiple determinations are averaged and the error values are calculated. The data obtained is evaluated graphically.

Substance: chlorite
- effect on the growth behaviour of the fibroblasts: no effect whatsoever

From US8728537B2, “Compositions for improvement of wound healing” (Cytotools AG, priority 2003, dated 2014)
